Consider eight molecules from patent US10421774B2 (priority 2016, dated 2019).

Common to all, as to assay: microbe, parasite or virus in culture
Common to all, as to type: cell-based, HIV-1

Assay [1] deals with NLRepRlucP373S recombinant wild type (WT) virus. To be noted: Human immunodeficiency virus 1, MT2, read-out: WT EC50. Put shortly: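 Multiple-cycle assay: luciferase-normalized NL4-3-derived NLRepRlucP373S (Renilla luciferase in place of nef) infects MT-2 cells, 10,000 cells/well, with 3-fold compound dilutions at 1% DMSO, 4-5 days, 37 °C. EC50 and EC90 fitted by median effect equation against Renilla luminescence, with residual signal under 3 μM NFV as background.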

Assay [2] relates to A364V site directed mutant virus. To be noted: Human immunodeficiency virus 1, MT2, read-out: A364V EC50. Put shortly: (§1)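 Virus yield quantified by Renilla luciferase after 4–5 day culture at 37°C of MT-2 cells (10,000/well) with 3-fold serially diluted compound at 1% final DMSO. Reporter viruses were NL4-3 P373S derivatives bearing Gag A364V or V370A/ΔT371, inputs matched on luciferase endpoint.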

The subject of the next assay is gag V370A/ΔT371 virus. To be noted: Human immunodeficiency virus 1, MT2, read-out: V370A/ΔT371 EC50. A digest of the protocol:
as §1

Assay [3] deals with T332S/V362I/Pr R41G virus. To be noted: Human immunodeficiency virus 1, MT2, read-out: T332S/V362I/pr41G EC50. Put shortly: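 Multiple-cycle susceptibility: MT-2 cells, 10,000 per well, exposed to 3-fold compound dilutions at 1% DMSO after infection with luciferase-normalized inoculum. Virus: NL4-3-derived Renilla reporter (Gag P373S) with Gag T332S/V362I and protease R41G. Readout Renilla luciferase after 4–5 days, 37 °C.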

In the case of `C=C(C)[C@@H]1CC[C@]2(NCCN3CCS(=O)(=O)CC3)CC[C@]3(C)[C@H](CC[C@@H]4[C@@]5(C)CC=C(C6=CCC(CCOc7ncccc7C)(C(=O)O)CC6)C(C)(C)[C@@H]5CC[C@]43C)[C@@H]12` (stereo partly drawn) [Example A28, 4-((1R,3aS,5aR,5bR,7aR,11aS,11bR,13aR,13bR)-3a-((2-(1,1-dioxidothiomorpholino)ethyl)amino)-5a,5b,8,8,11a-pentamethyl-1-(prop-1-en-2-yl)-2,3,3a,4,5,5a,5b,6,7,7a,8,11,11a,11b,12,13,13a,13b-octadecahydro-1H-cyclopenta[a]chrysen-9-yl)-1-(2-((3-methylpyridin-2-yl)oxy)ethyl)cyclohex-3-ene-1-carboxylic acid], the EC50 in assay [1] was less than 50 nM; in assay [2], greater than 50 nM; in the assay on gag V370A/ΔT371 virus it was 68 nM; in assay [3], 68 nM.

As for `C=C(C)[C@@H]1CC[C@]2(NCCN3CCS(=O)(=O)CC3)CC[C@]3(C)[C@H](CC[C@@H]4[C@@]5(C)CC=C(C6=CCC(CCOc7ncccc7Cl)(C(=O)O)CC6)C(C)(C)[C@@H]5CC[C@]43C)[C@@H]12` (stereo partly drawn) [Example A29, 1-(2-((3-chloropyridin-2-yl)oxy)ethyl)-4-((1R,3aS,5aR,5bR,7aR,11aS,11bR,13aR,13bR)-3a-((2-(1,1-dioxidothiomorpholino)ethyl)amino)-5a,5b,8,8,11a-pentamethyl-1-(prop-1-en-2-yl)-2,3,3a,4,5,5a,5b,6,7,7a,8,11,11a,11b,12,13,13a,13b-octadecahydro-1H-cyclopenta[a]chrysen-9-yl)cyclohex-3-ene-1-carboxylic acid], the EC50 in assay [1] came out at 5 nM; in assay [2] it was 4 nM; with gag V370A/ΔT371 virus it was 3 nM; in assay [3], 3 nM.

Regarding `C=C(C)[C@@H]1CC[C@]2(NCCN3CCS(=O)(=O)CC3)CC[C@]3(C)[C@H](CC[C@@H]4[C@@]5(C)CC=C(C6=CCC(CCOc7ncccc7C(F)(F)F)(C(=O)O)CC6)C(C)(C)[C@@H]5CC[C@]43C)[C@@H]12` (stereo partly drawn) [Example A30, 4-((1R,3aS,5aR,5bR,7aR,11aS,11bR,13aR,13bR)-3a-((2-(1,1-dioxidothiomorpholino)ethyl)amino)-5a,5b,8,8,11a-pentamethyl-1-(prop-1-en-2-yl)-2,3,3a,4,5,5a,5b,6,7,7a,8,11,11a,11b,12,13,13a,13b-octadecahydro-1H-cyclopenta[a]chrysen-9-yl)-1-(2-((3-(trifluoromethyl)pyridin-2-yl)oxy)ethyl)cyclohex-3-ene-1-carboxylic acid], the EC50 in assay [1] amounted to 13 nM; in assay [2], 3000 nM; in the assay on gag V370A/ΔT371 virus it was 223 nM; in assay [3] it was 223 nM.

On to `C=C(C)[C@@H]1CC[C@]2(NCCN3CCS(=O)(=O)CC3)CC[C@]3(C)[C@H](CC[C@@H]4[C@@]5(C)CC=C(C6=CCC(CCOc7cnccn7)(C(=O)O)CC6)C(C)(C)[C@@H]5CC[C@]43C)[C@@H]12` (stereo partly drawn) [Example A31, 4-((1R,3aS,5aR,5bR,7aR,11aS,11bR,13aR,13bR)-3a-((2-(1,1-dioxidothiomorpholino)ethyl)amino)-5a,5b,8,8,11a-pentamethyl-1-(prop-1-en-2-yl)-2,3,3a,4,5,5a,5b,6,7,7a,8,11,11a,11b,12,13,13a,13b-octadecahydro-1H-cyclopenta[a]chrysen-9-yl)-1-(2-(pyrazin-2-yloxy)ethyl)cyclohex-3-ene-1-carboxylic acid], for which the EC50 in assay [1] was 3 nM; in assay [2], 3000 nM; with gag V370A/ΔT371 virus, greater than 50 nM; in assay [3], greater than 50 nM.

Take `C=C(C)[C@@H]1CC[C@]2(NCCN3CCS(=O)(=O)CC3)CC[C@]3(C)[C@H](CC[C@@H]4[C@@]5(C)CC=C(C6=CCC(CCOc7cc(OC)ccn7)(C(=O)O)CC6)C(C)(C)[C@@H]5CC[C@]43C)[C@@H]12` (stereo partly drawn) [Example A32, 4-((1R,3aS,5aR,5bR,7aR,11aS,11bR,13aR,13bR)-3a-((2-(1,1-dioxidothiomorpholino)ethyl)amino)-5a,5b,8,8,11a-pentamethyl-1-(prop-1-en-2-yl)-2,3,3a,4,5,5a,5b,6,7,7a,8,11,11a,11b,12,13,13a,13b-octadecahydro-1H-cyclopenta[a]chrysen-9-yl)-1-(2-((4-methoxypyridin-2-yl)oxy)ethyl)cyclohex-3-ene-1-carboxylic acid]: the EC50 in assay [1] is 6 nM; in assay [2] it was greater than 50 nM; with gag V370A/ΔT371 virus, greater than 50 nM; in assay [3], 419 nM.

Regarding `C=C(C)[C@@H]1CC[C@]2(NCCN3CCS(=O)(=O)CC3)CC[C@]3(C)[C@H](CC[C@@H]4[C@@]5(C)CC=C(C6=CCC(CCOc7cc(Br)ccn7)(C(=O)O)CC6)C(C)(C)[C@@H]5CC[C@]43C)[C@@H]12` (stereo partly drawn) [Example A33, 1-(2-((4-bromopyridin-2-yl)oxy)ethyl)-4-((1R,3aS,5aR,5bR,7aR,11aS,11bR,13aR,13bR)-3a-((2-(1,1-dioxidothiomorpholino)ethyl)amino)-5a,5b,8,8,11a-pentamethyl-1-(prop-1-en-2-yl)-2,3,3a,4,5,5a,5b,6,7,7a,8,11,11a,11b,12,13,13a,13b-octadecahydro-1H-cyclopenta[a]chrysen-9-yl)cyclohex-3-ene-1-carboxylic acid], the EC50 in assay [1] is 6 nM; in assay [2], 1790 nM; in the assay on gag V370A/ΔT371 virus, greater than 50 nM; in assay [3], 419 nM.

As to `C=C(C)[C@@H]1CC[C@]2(NCCN3CCS(=O)(=O)CC3)CC[C@]3(C)[C@H](CC[C@@H]4[C@@]5(C)CC=C(C6=CCC(CCOc7cc(Cl)ccn7)(C(=O)O)CC6)C(C)(C)[C@@H]5CC[C@]43C)[C@@H]12` (stereo partly drawn) [Example A34, 1-(2-((4-chloropyridin-2-yl)oxy)ethyl)-4-((1R,3aS,5aR,5bR,7aR,11aS,11bR,13aR,13bR)-3a-((2-(1,1-dioxidothiomorpholino)ethyl)amino)-5a,5b,8,8,11a-pentamethyl-1-(prop-1-en-2-yl)-2,3,3a,4,5,5a,5b,6,7,7a,8,11,11a,11b,12,13,13a,13b-octadecahydro-1H-cyclopenta[a]chrysen-9-yl)cyclohex-3-ene-1-carboxylic acid], the EC50 in assay [1] is 2 nM; in assay [2], 64 nM; in the assay on gag V370A/ΔT371 virus it was greater than 50 nM; in assay [3], 96 nM.

For the molecule `C=C(C)[C@@H]1CC[C@]2(NCCN3CCS(=O)(=O)CC3)CC[C@]3(C)[C@H](CC[C@@H]4[C@@]5(C)CC=C(C6=CCC(CCOc7ccnc(Cl)c7)(C(=O)O)CC6)C(C)(C)[C@@H]5CC[C@]43C)[C@@H]12` (stereo partly drawn) [Example A35, 1-(2-((2-chloropyridin-4-yl)oxy)ethyl)-4-((1R,3aS,5aR,5bR,7aR,11aS,11bR,13aR,13bR)-3a-((2-(1,1-dioxidothiomorpholino)ethyl)amino)-5a,5b,8,8,11a-pentamethyl-1-(prop-1-en-2-yl)-2,3,3a,4,5,5a,5b,6,7,7a,8,11,11a,11b,12,13,13a,13b-octadecahydro-1H-cyclopenta[a]chrysen-9-yl)cyclohex-3-ene-1-carboxylic acid], the EC50 in assay [1] is less than 50 nM; in assay [2] it was 233 nM; in the assay on gag V370A/ΔT371 virus it was 3000 nM; in assay [3], greater than 50 nM.
